Assays:
[1] = target: T1, Eukaryotic translation initiation factor 2-alpha kinase 3 (Homo sapiens, UniProt Q9NZJ5); assay: Inhibition of recombinant GST-tagged PERK (unknown origin) by LanthaScreen assay
T1 sequence (Q9NZJ5 whole entry): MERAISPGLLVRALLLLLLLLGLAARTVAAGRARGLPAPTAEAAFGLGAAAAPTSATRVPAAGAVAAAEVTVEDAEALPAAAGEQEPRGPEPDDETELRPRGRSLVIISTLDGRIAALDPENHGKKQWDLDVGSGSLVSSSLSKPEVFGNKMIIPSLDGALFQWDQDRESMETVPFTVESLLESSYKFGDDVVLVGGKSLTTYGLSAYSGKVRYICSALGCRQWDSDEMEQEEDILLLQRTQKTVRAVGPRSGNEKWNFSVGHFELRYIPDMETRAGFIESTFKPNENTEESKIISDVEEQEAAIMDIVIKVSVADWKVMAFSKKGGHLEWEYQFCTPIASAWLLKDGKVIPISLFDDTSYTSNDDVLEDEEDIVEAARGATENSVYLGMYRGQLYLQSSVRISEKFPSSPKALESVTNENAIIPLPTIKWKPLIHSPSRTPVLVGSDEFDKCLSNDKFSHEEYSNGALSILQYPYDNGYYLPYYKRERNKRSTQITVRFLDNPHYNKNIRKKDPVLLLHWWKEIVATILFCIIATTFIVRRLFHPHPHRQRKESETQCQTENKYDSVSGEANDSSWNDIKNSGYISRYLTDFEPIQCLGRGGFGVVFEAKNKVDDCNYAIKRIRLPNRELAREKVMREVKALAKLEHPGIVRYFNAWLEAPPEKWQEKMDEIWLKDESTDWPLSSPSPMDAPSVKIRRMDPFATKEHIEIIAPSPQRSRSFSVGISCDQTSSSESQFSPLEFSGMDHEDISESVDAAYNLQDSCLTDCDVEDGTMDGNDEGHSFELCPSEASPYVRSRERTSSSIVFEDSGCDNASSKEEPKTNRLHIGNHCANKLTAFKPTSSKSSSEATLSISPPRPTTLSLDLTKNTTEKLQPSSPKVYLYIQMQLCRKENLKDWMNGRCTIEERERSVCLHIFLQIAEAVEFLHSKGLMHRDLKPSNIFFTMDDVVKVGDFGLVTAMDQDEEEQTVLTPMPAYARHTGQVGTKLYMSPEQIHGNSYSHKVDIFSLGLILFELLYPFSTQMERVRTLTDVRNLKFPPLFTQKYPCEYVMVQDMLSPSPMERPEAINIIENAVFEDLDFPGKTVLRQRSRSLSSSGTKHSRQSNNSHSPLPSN

[2] = target: T1, Eukaryotic translation initiation factor 2-alpha kinase 3; assay: Inhibition of PERK (unknown origin) expressed in HEK293 cells assessed as inhibition of phosphorylation of GFP-eIF2 alpha by cell-based TR-FRET assay

Row | SMILES | IC50 [1] [nM] | IC50 [2] [nM]
1 | COc1cc2ncnc(Nc3ccc4c(c3)CCN4C(=O)Cc3c(C)[nH]c4cc(F)ccc34)c2cc1OC | 0.631 | 25.1
2 | COc1cc2ncnc(Nc3ccc4c(c3)CCN4C(=O)Cc3c[nH]c4ccccc34)c2cc1OC | 5.01 | 501
3 | COc1cc2ncnc(Nc3ccc4c(c3)CCN4C(=O)Cc3cc(F)ccc3F)c2cc1OC | 0.398 | 50.1
4 | COc1cc2ncnc(Nc3ccc4c(c3)CCN4C(=O)Cn3ccc4ccccc43)c2cc1OC | – | 316
5 | COc1cc2ncnc(Nc3ccc4c(c3)CCN4C(=O)Cc3coc4ccccc34)c2cc1OC | – | > 31600

— ChEMBL document CHEMBL3351609, “Pyrrolopyridines-quinazolines Inhibitors of PKR-Like ER Kinase” (ACS Med Chem Lett, 2015)
